Measured values from paper PMC11189516, “Structure-guided conversion from an anaplastic lymphoma kinase inhibitor into Plasmodium lysyl-tRNA synthetase selective inhibitors” (Communications Biology, 2024).

How the values were obtained:
HepG2 cells = assay: Cytotoxicity assay (CCK-8); format: cell-based, human; conditions: HepG2, 72 h
Method: (§1) HepG2 cells (National Collection of Authenticated Cell Cultures) were cultured in Minimum Essential Medium (Gibco) supplemented with 10% of fetal bovine serum, 100 U·mL^−1 penicillin, 100 U·mL^−1 streptomycin (Gibco), 2 mM L-Glutamine (Gibco), 1× NEAA (Gibco) and 1 mM Sodium Pyruvate (Gibco). The cells were hemi-depleted each week with fresh medium and maintained at 1 ~ 2 × 10^6 cells/mL in 6-cm dishes at 37 °C and 5% CO2. Tested with MycoBlue Mycoplasma Detector D101 (Vazyme), the cells were free from mycoplasma contamination.
(§2) Cell viability was analyzed by Cell Counting Kit-8 (CCK8, ApexBio) according to the manufacturer’s protocols. Cells were seeded and cultured at a density of 2.5 × 10^3 cells per well in 100 μL medium in 96-well microplates (Corning). Then, the cells were treated with different concentrations of compound (0, 1 μM, 3 μM, 10 μM, 100 μM, 300 μM). […] After treatment for 72 h, 10 μL of CCK-8 reagent was added to each well and then cultured for 4 h. All experiments were performed in pentaplicate. The absorbance was analyzed at 450 nm using a microplate reader (Tecan) using medium without cells as blanks. Data was processed using GraphPad Prism 9.

[1] = Solubility noted in the cytotoxicity assay; format: physicochemical; conditions: highest concentration limited to 100 μM in cell medium
Method: as §2

[2] = Cytotoxicity assay (CCK-8); format: cell-based, human; conditions: human, HepG2 cells; HepG2, 72 h
Method: as §1, §2

Row | Compound | cytotoxicity to HepG2 (HepG2 cells) | solubility [1] | CC50 at 72 h [2] [µM]
1 | COc1ccc(OC)c(Nc2ncnc(Nc3ccccc3S(=O)(=O)C(C)C)n2)c1 [Compound 36] | no significant toxicity | poor solubility | 
2 | COc1ccccc1Nc1ncnc(Nc2ccccc2S(=O)(=O)C(C)C)n1 [Compound 38] |  | poor solubility | 7.7
